PubChem BioAssay AID2060621 (Molecular Pharmacology Branch, DTP, NCI, 2025)

Test system: 324938-238-R-J1-PDC complex spheroids viability
Assay: Anticancer human tumor 324938-238-R-J1-PDC patient-derived bladder carcinoma cell line growth inhibition [CLK]
Settings: for IC50: curve of first compound; for viability, T/C: stronger effect = lower value
Method in brief: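 Patient-derived tumor cells grown as complex spheroids with HUVEC endothelial cells and mesenchymal stem cells, treated with drug combinations. Concentrations descend in half-log steps from near clinical Cmax, or from 10 microM if Cmax unknown.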

[1] = second compound 0.0316 µM, first compound 0.0316 µM
[2] = second compound 0.0316 µM, first compound 0.1 µM
[3] = second compound 0.0316 µM, first compound 0.316 µM
[4] = second compound 0.0316 µM, first compound 1 µM
[5] = second compound 0.0316 µM, first compound 3.16 µM
[6] = second compound 0.0316 µM, first compound 10 µM
[7] = second compound 0.1 µM, first compound 0.0316 µM
[8] = second compound 0.1 µM, first compound 0.1 µM
[9] = second compound 0.1 µM, first compound 0.316 µM
[10] = second compound 0.1 µM, first compound 1 µM
[11] = second compound 0.1 µM, first compound 3.16 µM
[12] = second compound 0.1 µM, first compound 10 µM
[13] = second compound 0.316 µM, first compound 0.0316 µM
[14] = second compound 0.316 µM, first compound 0.1 µM
[15] = second compound 0.316 µM, first compound 0.316 µM
[16] = second compound 0.316 µM, first compound 1 µM
[17] = second compound 0.316 µM, first compound 3.16 µM
[18] = second compound 0.316 µM, first compound 10 µM
[19] = second compound 1 µM, first compound 0.0316 µM
[20] = second compound 1 µM, first compound 0.1 µM
[21] = second compound 1 µM, first compound 0.316 µM
[22] = second compound 1 µM, first compound 1 µM
[23] = second compound 1 µM, first compound 3.16 µM
[24] = second compound 1 µM, first compound 10 µM
[25] = second compound 3.16 µM, first compound 0.0316 µM
[26] = second compound 3.16 µM, first compound 0.1 µM
[27] = second compound 3.16 µM, first compound 0.316 µM
[28] = second compound 3.16 µM, first compound 1 µM
[29] = second compound 3.16 µM, first compound 3.16 µM
[30] = second compound 3.16 µM, first compound 10 µM
[31] = second compound 10 µM, first compound 0.0316 µM
[32] = second compound 10 µM, first compound 0.1 µM
[33] = second compound 10 µM, first compound 0.316 µM
[34] = second compound 10 µM, first compound 1 µM
[35] = second compound 10 µM, first compound 3.16 µM
[36] = second compound 10 µM, first compound 10 µM
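Note: viability read after seven days of drug exposure.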
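Throughout, for viability, T/C: 100% = DMSO vehicle control wells.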

CC(C)CC(NC(=O)C(Cc1ccccc1)NC(=O)c1cnccn1)B(O)O (stereo not drawn) + CNC(=O)c1ccc(Nc2nc(OC3CCCC3)c3c(-c4ccc5nc(C)oc5c4)c[nH]c3n2)c(OC)c1
IC50 (second compound 0.0316 µM): 1.27 nM
IC50 (second compound 0.1 µM): < 0.949 nM
IC50 (second compound 0.316 µM): < 0.949 nM
IC50 (second compound 1 µM): < 0.949 nM
IC50 (second compound 3.16 µM): < 0.949 nM
IC50 (second compound 10 µM): < 0.949 nM
viability, T/C (second compound 0.0316 µM, first compound 0.000949 µM): 66.2%
viability, T/C (second compound 0.0316 µM, first compound 0.003 µM): 1.72%
viability, T/C (second compound 0.0316 µM, first compound 0.00949 µM): 0.22%
viability, T/C (second compound 0.0316 µM, first compound 0.03 µM): 0.21%
viability, T/C (second compound 0.0316 µM, first compound 0.0949 µM): 0.13%
viability, T/C (second compound 0.0316 µM, first compound 0.3 µM): 0.19%
viability, T/C (second compound 0.1 µM, first compound 0.000949 µM): 37.7%
viability, T/C (second compound 0.1 µM, first compound 0.003 µM): 1.25%
viability, T/C (second compound 0.1 µM, first compound 0.00949 µM): 0.18%
viability, T/C (second compound 0.1 µM, first compound 0.03 µM): 0.13%
viability, T/C (second compound 0.1 µM, first compound 0.0949 µM): 0.55%
viability, T/C (second compound 0.1 µM, first compound 0.3 µM): 0.13%
viability, T/C (second compound 0.316 µM, first compound 0.000949 µM): 21.6%
viability, T/C (second compound 0.316 µM, first compound 0.003 µM): 1.05%
viability, T/C (second compound 0.316 µM, first compound 0.00949 µM): 0.17%
viability, T/C (second compound 0.316 µM, first compound 0.03 µM): 0.08%
viability, T/C (second compound 0.316 µM, first compound 0.0949 µM): 0.1%
viability, T/C (second compound 0.316 µM, first compound 0.3 µM): 0.13%
viability, T/C (second compound 1 µM, first compound 0.000949 µM): 17.3%
viability, T/C (second compound 1 µM, first compound 0.003 µM): 0.5%
viability, T/C (second compound 1 µM, first compound 0.00949 µM): 0.13%
viability, T/C (second compound 1 µM, first compound 0.03 µM): 0.1%
viability, T/C (second compound 1 µM, first compound 0.0949 µM): 0.1%
viability, T/C (second compound 1 µM, first compound 0.3 µM): 0.12%
viability, T/C (second compound 3.16 µM, first compound 0.000949 µM): 12.2%
viability, T/C (second compound 3.16 µM, first compound 0.003 µM): 0.3%
viability, T/C (second compound 3.16 µM, first compound 0.00949 µM): 0.2%
viability, T/C (second compound 3.16 µM, first compound 0.03 µM): 0.09%
viability, T/C (second compound 3.16 µM, first compound 0.0949 µM): 0.14%
viability, T/C (second compound 3.16 µM, first compound 0.3 µM): 0.16%
viability, T/C (second compound 10 µM, first compound 0.000949 µM): 12%
viability, T/C (second compound 10 µM, first compound 0.003 µM): 0.29%
viability, T/C (second compound 10 µM, first compound 0.00949 µM): 0.87%
viability, T/C (second compound 10 µM, first compound 0.03 µM): 0.13%
viability, T/C (second compound 10 µM, first compound 0.0949 µM): 1.24%
viability, T/C (second compound 10 µM, first compound 0.3 µM): 0.19%

O=C(c1cc(Cc2n[nH]c(=O)c3ccccc23)ccc1F)N1CCN(C(=O)C2CC2)CC1 + CN1CCN(c2cc(C(=O)Nc3cc4cc(-c5cnn(C)c5)ccc4cn3)ccn2)CC1
IC50 (second compound 0.0316 µM): 4050 nM
IC50 (second compound 0.1 µM): < 31.6 nM
IC50 (second compound 0.316 µM): < 31.6 nM
IC50 (second compound 1 µM): < 31.6 nM
IC50 (second compound 3.16 µM): < 31.6 nM
IC50 (second compound 10 µM): < 31.6 nM
viability, T/C [1]: 76.9%
viability, T/C [2]: 76.8%
viability, T/C [3]: 65.2%
viability, T/C [4]: 70.5%
viability, T/C [5]: 55.5%
viability, T/C [6]: 29.6%
viability, T/C [7]: 46.9%
viability, T/C [8]: 50.8%
viability, T/C [9]: 42.5%
viability, T/C [10]: 49.2%
viability, T/C [11]: 36.4%
viability, T/C [12]: 19.4%
viability, T/C [13]: 20.6%
viability, T/C [14]: 24.1%
viability, T/C [15]: 19.9%
viability, T/C [16]: 19.9%
viability, T/C [17]: 18.9%
viability, T/C [18]: 16.4%
viability, T/C [19]: 1.69%
viability, T/C [20]: 1.71%
viability, T/C [21]: 1.98%
viability, T/C [22]: 1.94%
viability, T/C [23]: 2.27%
viability, T/C [24]: 1.74%
viability, T/C [25]: 0.26%
viability, T/C [26]: 0.21%
viability, T/C [27]: 0.25%
viability, T/C [28]: 0.1%
viability, T/C [29]: 0.36%
viability, T/C [30]: 0.49%
viability, T/C [31]: 0.11%
viability, T/C [32]: 0.21%
viability, T/C [33]: 0.24%
viability, T/C [34]: 0.17%
viability, T/C [35]: 0.26%
viability, T/C [36]: 0.28%

CCN1CCN(Cc2ccc(Nc3ncc(F)c(-c4cc(F)c5nc(C)n(C(C)C)c5c4)n3)nc2)CC1 + CN1CCN(c2cc(C(=O)Nc3cc4cc(-c5cnn(C)c5)ccc4cn3)ccn2)CC1
IC50 (second compound 0.0316 µM): 64.8 nM
IC50 (second compound 0.1 µM): 5.84 nM
IC50 (second compound 0.316 µM): < 3.16 nM
IC50 (second compound 1 µM): < 3.16 nM
IC50 (second compound 3.16 µM): < 3.16 nM
IC50 (second compound 10 µM): < 3.16 nM
viability, T/C (second compound 0.0316 µM, first compound 0.00316 µM): 65%
viability, T/C (second compound 0.0316 µM, first compound 0.01 µM): 72.9%
viability, T/C [1]: 56.3%
viability, T/C [2]: 46.5%
viability, T/C [3]: 34.2%
viability, T/C [4]: 35.5%
viability, T/C (second compound 0.1 µM, first compound 0.00316 µM): 53%
viability, T/C (second compound 0.1 µM, first compound 0.01 µM): 47.2%
viability, T/C [7]: 42.1%
viability, T/C [8]: 42.3%
viability, T/C [9]: 34.2%
viability, T/C [10]: 31.3%
viability, T/C (second compound 0.316 µM, first compound 0.00316 µM): 23.8%
viability, T/C (second compound 0.316 µM, first compound 0.01 µM): 24.7%
viability, T/C [13]: 25%
viability, T/C [14]: 25.1%
viability, T/C [15]: 28.2%
viability, T/C [16]: 31.1%
viability, T/C (second compound 1 µM, first compound 0.00316 µM): 1.45%
viability, T/C (second compound 1 µM, first compound 0.01 µM): 1.54%
viability, T/C [19]: 1.57%
viability, T/C [20]: 2.36%
viability, T/C [21]: 1.73%
viability, T/C [22]: 0.69%
viability, T/C (second compound 3.16 µM, first compound 0.00316 µM): 0.12%
viability, T/C (second compound 3.16 µM, first compound 0.01 µM): 0.84%
viability, T/C [25]: 0.19%
viability, T/C [26]: 0.14%
viability, T/C [27]: 0.32%
viability, T/C [28]: 0.84%
viability, T/C (second compound 10 µM, first compound 0.00316 µM): 0.09%
viability, T/C (second compound 10 µM, first compound 0.01 µM): 0.19%
viability, T/C [31]: 0.2%
viability, T/C [32]: 0.11%
viability, T/C [33]: 0.15%
viability, T/C [34]: 0.2%

C#Cc1c(F)ccc2cc(O)cc(-c3ncc4c(N5CC6CCC(C5)N6)nc(OCC56CCCN5CC(F)C6)nc4c3F)c12 (stereo not drawn) + CN1CCN(c2cc(C(=O)Nc3cc4cc(-c5cnn(C)c5)ccc4cn3)ccn2)CC1
IC50 (second compound 0.0316 µM): 5050 nM
IC50 (second compound 0.1 µM): 1240 nM
IC50 (second compound 0.316 µM): < 31.6 nM
IC50 (second compound 1 µM): < 31.6 nM
IC50 (second compound 3.16 µM): < 31.6 nM
IC50 (second compound 10 µM): < 31.6 nM
viability, T/C [1]: 77.5%
viability, T/C [2]: 86.1%
viability, T/C [3]: 74.5%
viability, T/C [4]: 69.9%
viability, T/C [5]: 56%
viability, T/C [6]: 41.4%
viability, T/C [7]: 57.3%
viability, T/C [8]: 51.8%
viability, T/C [9]: 52.7%
viability, T/C [10]: 52.8%
viability, T/C [11]: 38%
viability, T/C [12]: 32.7%
viability, T/C [13]: 28.2%
viability, T/C [14]: 28%
viability, T/C [15]: 22.2%
viability, T/C [16]: 23.9%
viability, T/C [17]: 21.5%
viability, T/C [18]: 19.4%
viability, T/C [19]: 2%
viability, T/C [20]: 2.51%
viability, T/C [21]: 2.35%
viability, T/C [22]: 2.31%
viability, T/C [23]: 1.37%
viability, T/C [24]: 0.75%
viability, T/C [25]: 0.13%
viability, T/C [26]: 0.3%
viability, T/C [27]: 0.16%
viability, T/C [28]: 0.11%
viability, T/C [29]: 0.15%
viability, T/C [30]: 0.14%
viability, T/C [31]: 0.11%
viability, T/C [32]: 0.16%
viability, T/C [33]: 1.1%
viability, T/C [34]: 0.14%
viability, T/C [35]: 0.15%
viability, T/C [36]: 0.24%
